Laboratory results taken from patent US7208517B1, “Endothelin antagonists” (Abbott Labortories, priority 1994, dated 2007).

biological target: T1, human ETB receptor (Homo sapiens, UniProt P24530); assay: ETA/ETB selectivity: (125I)ET-3 competition binding, CHO cells transfected with human ETB receptor (hET-B); conditions: CHO cells transfected with human ETB receptor; 0.1 nM (125I)ET-3; read-out: hET-B IC50
T1 construct: expressed in transfected cells; host or cells: CHO cells, permanently transfected
T1 sequence (P24530 27-442): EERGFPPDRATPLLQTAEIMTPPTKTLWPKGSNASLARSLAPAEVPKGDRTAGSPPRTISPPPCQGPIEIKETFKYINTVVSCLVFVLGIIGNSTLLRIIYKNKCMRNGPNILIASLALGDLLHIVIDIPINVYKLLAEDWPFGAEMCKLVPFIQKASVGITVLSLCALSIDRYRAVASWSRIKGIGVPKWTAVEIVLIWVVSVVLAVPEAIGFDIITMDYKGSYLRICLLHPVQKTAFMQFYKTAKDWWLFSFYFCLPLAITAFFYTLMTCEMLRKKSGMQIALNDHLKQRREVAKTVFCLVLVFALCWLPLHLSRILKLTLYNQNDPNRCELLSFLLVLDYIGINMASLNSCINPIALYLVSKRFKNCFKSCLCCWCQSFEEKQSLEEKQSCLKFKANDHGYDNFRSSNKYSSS
Experimental: MMQ cells, porcine cerebellar tissues (known to contain ETB receptors) and chinese hamster ovary cells (CHO) permanently transfected with the human ETA or ETB receptor were homogenized in 25 ml of 10 mM Hepes (pH 7.4) containing 0.25 M sucrose and a protease inhibitor [50 mM EDTA, 0.1 mM PMSF, 5 μg/ml Pepstatin A, and 0.025% Bacitracin] using a micro ultrasonic cell disrupter. The mixture was centrifuged at 1000×g for 10 min. The supernatant was collected and centrifuged at 60,000×g for 60 min. The precipitate was resuspended in 20 mM Tris, pH 7.4 containing protease inhibitor and centrifuged again. The final membrane pellet was resuspended in 20 mM Tris, pH 7.4 containing protease inhibitors and stored at −80° C. until used. Protein content was determined by the Bio-Rad dye-binding protein assay.
Binding assays were performed in 96-well microtiter plates pretreated with 0.1% BSA. Membranes prepared from cells were diluted 100 fold in Buffer B (20 mM Tris, 100 mM NaCl, 10 mM MgCl2, pH 7.4, with 0.2% BSA, 0.1 mM PMSF, 5 μg/mL Pepstatin A, 0.025% bacitracin, and 50 mM EDTA) to a final concentration of 0.2 mg/mL of protein. In competition binding studies, membranes (0.02 mg) were incubated with 0.1 nM of (^125I)ET-1 (for ETA assay in MMQ or CHO cells transfected with human ETA receptor) or (^125I)ET-3 (for ETB assay in porcine cerebellum or CHO cells transfected with human ETB receptor) in Buffer B (final volume: 0.2 mL) in the presence of increasing concentrations of the test compound for 3 hours at 25° C. After incubation, unbound ligands were separated from bound ligands by a vacuum filtration method using glass-fiber filter strips in PHD cell harvesters (Cambridge Technology, Inc., MA), washing the filter strips three times with saline (1 mL). Nonspecific binding was determined in the presence of 1 μM ET-1. IC50 values are calculated using an average of at least two separate determinations.

Going from `CCCCN(CCCC)C(=O)CN1CC(c2ccc3c(c2)OCO3)C(C(=O)O)C1CC(C)(C)CCC` (stereo not shown) [compound 503] to `CCCCN(CCCC)C(=O)CN1C[C@H](c2ccc3c(c2)OCO3)[C@@H](C(=O)O)[C@@H]1CC(C)(C)CCC` [compound 537], the IC50 falls from 52 µM to 1.9 µM (27-fold).

First: CCCCN(CCCC)C(=O)CN1CC(c2ccc3c(c2)OCO3)C(C(=O)O)C1CCC1OCCO1 (stereo not shown) [compound 504]
Second: CCCCN(CCCC)C(=O)CN1CC(c2ccc3c(c2)OCO3)C(C(=O)O)C1CCC1CCCCO1 (stereo not shown) [compound 505]
The IC50 of the first is higher: > 100 µM for the first, 68 µM for the second. The second is the more potent here.

Going from `CCCCN(CCCC)C(=O)CN1CC(c2ccc3c(c2)OCO3)C(C(=O)O)C1CC(C)(C)C=C(C)C` (stereo not shown) [compound 506] to `CCCCN(CCCC)C(=O)CN1CC(c2ccc3c(c2)OCO3)C(C(=O)O)C1CC(C)(C)C1OCCO1` (stereo not shown) [compound 507], the IC50 rises from 61 µM to > 100 µM.

Going from `CCCCN(CCCC)C(=O)CN1CC(c2cc(OC)c3c(c2)OCO3)C(C(=O)O)C1CCC1OCCO1` (stereo not shown) [compound 509] to `CCCCN(CCCC)C(=O)CN1CC(c2cc(OC)c3c(c2)OCO3)C(C(=O)O)C1CC(C)(C)C1OCCO1` (stereo not shown) [compound 516], the IC50 rises from 23 µM to 37 µM (1.6-fold).

`CCCCN(CCCC)C(=O)CN1CC(c2ccc3c(c2)OCO3)C(C(=O)O)C1COc1ccccc1OC` (stereo not shown) [compound 510] and `CCCCN(CCCC)C(=O)CN1CC(c2ccc3c(c2)OCO3)C(C(=O)O)C1CCc1ccccc1OC` (stereo not shown) [compound 517] are within 1.5-fold of each other in IC50: 11 µM for the first, 12 µM for the second.

First: CCCC(CCC)N(C(=O)CN1CC(c2cc(OC)c3c(c2)OCO3)C(C(=O)O)C1CCC1OCCO1)c1ccc(F)c(C)c1 (stereo not shown) [compound 513]
Second: CCCON(CCC)C(=O)CN1CC(c2ccc3c(c2)OCO3)C(C(=O)O)C1c1ccc(OC)cc1 (stereo not shown) [compound 524]
The IC50 of the first is 16-fold higher: 14 µM for the first, 0.89 µM for the second. The second is the more potent here.

Compared with `CCCCN(CCCC)C(=O)CN1C[C@H](c2ccc3c(c2)CCO3)[C@@H](C(=O)O)[C@@H]1CC(C)(C)CCC` [compound 515], `CCCCN(CCCO)C(=O)CN1CC(c2ccc3c(c2)OCO3)C(C(=O)O)C1c1ccc(OC)cc1` (stereo not shown) [compound 523] is lower in IC50: > 100 µM for the first, 0.29 µM for the second. The second is the more potent here.

Compound `CCCCN(C(=O)CN1CC(c2ccc3c(c2)OCO3)C(C(=O)O)C1c1ccc(OC)cc1)c1cccnc1` (stereo not shown) [compound 531] has an IC50 of 0.87 µM.

tested on: male subjects with hormone refractory prostate cancer; assay: Visual Analog Scale (VAS) pain assessment of treated subjects; format: in vivo, human; conditions: independent of the effects of morphine
Experimental: Studies were performed on male subjects with asymptomatic hormone refractory prostate cancer with rising PSA levels and on male subjects with symptomatic hormone refractory prostate cancer with rising PSA levels and pain. Subjects in the phase II studies had castrate levels of testosterone, either due to pharmacologic intervention, via leuprolide (Lupron®) or goserelin (Zoladex®), or via surgical castration. Subjects received ABT-627 or placebo. The following tests were conducted: ABT-627 was formulated in 2.5 and 10 mg doses. An oral liquid formulation of ABT-627 was also prepared as follows: 1 mg/ml ABT-627, 50% glycerin, 14% alcohol, and water. Matching placebos were also provided. […] The log also contained a table on which was recorded all daily pain medication consumed by the patient. […] Clinical personnel who received the logs measured the score by measuring the distance (in mm) from the “no pain” end mark to the point where the subject's line crossed the VAS line. […] The weekly VAS scores were calculated excluding the lowest and highest score for each week and averaging the remaining five scores. […] The duration of the response, defined as the time from baseline to the last weekly assessment for which the responder definition was satisfied, was analyzed using the Kaplan-Meier methodology and logrank test.

In the case of `CCCCCN(CCCC)C(=O)CN1C[C@H](c2ccc3c(c2)OCO3)[C@@H](C(=O)O)[C@@H]1c1ccc(OC)cc1` [ABT-627], the “VAS scores, pain (AUC, FIG. 3)” value is reported as “VAS scores showed a decrease in pain”.
